For experiment [1], the system named is umbilical cord blood-derived CD34+ cells. As to the kind of experiment: Cell counting: total cell number and absolute number of marker-positive cells after small molecule induction. Format: cell-based, human. Particulars: 6 days. The procedure: According to the solubility and required solvent indicated in the instructions of the small molecule inhibitor (see Table 1 for the Cat. number of the small molecule inhibitor), the preparation of the small molecule inhibitor stock solution was carried out. Next, the hematopoietic stem cell medium was prepared: SFEM II medium (stem cell, Cat. number: 09655)+50 ng/ml growth factor Flt-3L (PeProtech, Cat. number: 300-100UG)+50 ng/ml growth factor SCF (PeProtech, Cat. number): 300-07-100UG)+50 ng/ml growth factor TPO (PeProtech, Cat. number: 300-18-100UG)+10 ng/ml interleukin IL-6 (PeProtech, Cat. number: 200-06-20UG)+1% bispecific antibody (HyClone, Cat. No.: sv30010). According to the set concentration gradient of the small molecule inhibitor, the stock solution and the basal medium were used to prepare the medium containing different concentrations of the small molecule inhibitor.
First, the prepared medium was added to a 24-well plate (Corning, Cat. number: 3473), 950 μl per well, and placing it in a carbon dioxide incubator (Thermo, model: 3111) to preheat; resuspending the spare umbilical cord Blood-derived HSCs of Example 1 with SFEM 11+50 ng/ml Flt-3L+50 ng/ml SCF+50 ng/ml TPO+10 ng/ml IL-6+1% bispecific antibody, calculating the medium volume to be added according to 50 μl cell suspension per well and 2*10^5/m1 cell density per well. For example, when the final volume of the cell culture solution per well was 1 ml, the total number of cells per well was 2*10^5 cells calculated according to the cell density per well, and the density of the […] of cell suspension supplemented to each well is 4*10^6/ml. The density of the spare HSCs of Example 1 was adjusted to the calculated density of the cell suspension, and adding it; taking out the preheated medium from the incubator, adding 50 μl of the cell suspension to each well, and after mixing, using the microscope (OLYMPUS, model: CKX53) to observe the cells state, and then putting it into an incubator for culturing.
On the umbilical cord blood-derived CD34+ cells sorted in Example 1, the optimal concentration of the screened-out inhibitor AG1296 was screened in the same way as in Example 2. After 6 days of induction with different concentrations of the small molecule inhibitor AG1296, the expression of LT-HSCs cell surface markers (CD34+CD45+CD90+CD45RA−CD38−) was detected by flow cytometry using the same method as in Example 3. 20 μL of cell suspension was taken to count in a cell counter (Nexcelom, model: Cellometer K2) on the 6th day of culture, calculating the absolute number of the final CD34+ cells and LT-HSCs on the 6th day (absolute number of cells=total number of cells*sternness ratio). The results were shown in FIGS. 3A-3B and FIGS. 4A-4B, respectively.

For experiment [2] the test system is unchanged. Description: In vivo transplantation of in vitro cultured CD34+ cells into irradiated immunodeficient NPG mice. Particulars: FIG. 8A, cells cultured with 1 μM AG1296 (SR1 5 μM), week 18 after transplantation. As to the method:
On the umbilical cord blood-derived CD34+ cells sorted in Example 1, the effects of the screened small molecule inhibitor AG1296 and the inhibitor SR1 reported in the literature on the in vivo hematopoietic system reconstitution ability was compared.
Preparation of cell medium: SFEM II+100 ng/ml Flt-3L+100 ng/ml SCF+100 ng/ml TPO+20 ng/ml IL-6+1% bispecific antibody. Cat. numbers of the medium, growth factor, bispecific antibody, etc. were as described in Example 2. According to the groups set in Table 4, different small molecule inhibitors were added.
The prepared cell medium was added to a 24-well plate, 950 μl per well, and placing it in a carbon dioxide incubator to preheat; using SFEMII+100 ng/ml Flt-3L+100 ng/ml SCF+100 ng/ml TPO+20 ng/ml IL-6+1% bispecific antibody to resuspend the spare umbilical cord blood-derived HSCs of Example 1. The medium volume required to resuspend the cells was calculated according to 50 μl of cell suspension was added to each well, and 0.28*10^5/ml cell density per well was; taking out the preheated medium from the incubator, adding 50 μl of resuspended cell suspension to each well, mixing well, observing the cell state under a microscope, and then putting them into the incubator for culture. […]
The proportions of human CD45, human CD19, human CD3, human CD33 and human CD56 in mouse bone marrow cells were detected by flow cytometry. […]

The mark [3] stands for this setting: FIG. 3B, 1 μM, 5 μM and 10 μM, vs Mock.

In the case of `COc1cc2ncc(-c3ccccc3)nc2cc1OC` [AG1296], the total cell number entry in experiment [1] (FIG. 3B, 1 μM vs 5 μM and 10 μM) is “higher cell numbers than that at concentrations of 5 μM and 10 μM”. In experiment [1] (FIG. 3B, 1 μM, 5 μM and 10 μM), the “absolute number of proliferating LT-HSCs” value was “better effect” and the “effect on cell proliferation” value was “slightly inhibited cell proliferation”. Moreover, in experiment [1] (setting [3]), the “absolute number of CD34+CD90+CD45RA- cells” value is given as “significantly better than the Mock group” and the “absolute numbers of CD34+ cells” value is given as “lower than that in the mock group”. Further, in experiment [1] (FIG. 4B, 1 μM), the “absolute number of proliferating LT-HSCs relative to other groups” value is listed as 1-2 times and the “effect on cell proliferation” value is “slightly inhibited cell proliferation”. In addition, the “absolute number of CD34+ cells” value in experiment [1] (FIG. 4B, 1 μM, vs Mock, 100 nM, 500 nM groups) was “not significantly better than other groups”. In experiment [1] (FIG. 4B, 1 μM, vs other groups), the “absolute number of CD34+CD90+, and CD34+CD90+CD45RA- cells” value was “significantly better than other groups”. Moreover, in experiment [2], the “bone marrow transplantation efficiency (proportion of human CD45+ cells in mouse bone marrow cells)” value was “significantly higher than that of the Mock group and the SR1 group”.

The values above are taken from patent publication US20240058387A1, “CULTURE MEDIUM COMPOSITION FOR AMPLIFYING AND MAINTAINING SELF-RENEWAL CAPACITY AND DIFFERENTIATION POTENTIAL OF HSCS AND APPLICATION THEREOF” (EDIGENE (GUANGZHOU) INC., priority 2020, published 2024).
